What was measured:
[1] = target: Casein kinase I isoform delta (Homo sapiens, UniProt P48730); conditions: at 10 µM
[2] = target: Serine/threonine-protein kinase N2 (Homo sapiens, UniProt Q16513); conditions: at 10 µM
[3] = target: Calcium/calmodulin-dependent protein kinase type 1D (Homo sapiens) (UniProt Q8IU85); assay: Selectivity interaction (KinomeScan (DiscoverX)) EUB0000618a CAMK1D; conditions: at 10 µM
[4] = target: T1, Muscle, skeletal receptor tyrosine-protein kinase (Homo sapiens) (UniProt O15146); assay: Selectivity interaction (KinomeScan (DiscoverX)) EUB0000607a MUSK; conditions: at 10 µM
T1 sequence (whole entry): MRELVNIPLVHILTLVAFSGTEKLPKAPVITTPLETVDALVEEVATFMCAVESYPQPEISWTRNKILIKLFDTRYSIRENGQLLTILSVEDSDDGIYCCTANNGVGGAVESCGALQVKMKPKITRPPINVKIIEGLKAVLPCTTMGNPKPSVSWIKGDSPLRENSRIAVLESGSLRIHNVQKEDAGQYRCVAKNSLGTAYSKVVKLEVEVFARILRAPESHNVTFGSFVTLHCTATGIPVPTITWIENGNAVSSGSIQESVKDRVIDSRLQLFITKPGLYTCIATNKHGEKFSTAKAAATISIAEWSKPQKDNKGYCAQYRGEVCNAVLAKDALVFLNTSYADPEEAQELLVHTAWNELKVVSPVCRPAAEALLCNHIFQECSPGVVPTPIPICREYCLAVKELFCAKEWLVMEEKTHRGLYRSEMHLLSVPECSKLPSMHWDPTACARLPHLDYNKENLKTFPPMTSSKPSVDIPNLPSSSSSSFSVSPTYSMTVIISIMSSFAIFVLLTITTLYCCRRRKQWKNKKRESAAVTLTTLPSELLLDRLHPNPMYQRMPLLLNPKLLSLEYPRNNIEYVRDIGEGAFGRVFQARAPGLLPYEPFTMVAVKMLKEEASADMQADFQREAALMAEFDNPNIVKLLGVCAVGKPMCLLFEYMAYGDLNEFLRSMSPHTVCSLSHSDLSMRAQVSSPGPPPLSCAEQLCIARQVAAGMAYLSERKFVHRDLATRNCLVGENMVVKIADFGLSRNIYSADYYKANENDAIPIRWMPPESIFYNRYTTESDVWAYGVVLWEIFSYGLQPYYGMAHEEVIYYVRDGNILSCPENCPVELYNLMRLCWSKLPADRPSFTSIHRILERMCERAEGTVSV

[5] = target: T2, Aurora kinase A (Homo sapiens) (UniProt O14965); assay: Selectivity interaction (ActivX KiNativ screen (kinase selectivity in THP-1 cell lysates)) EUB0000639a STK6; format: subcellular; conditions: lysate, at 5 µM
T2 sequence (whole entry): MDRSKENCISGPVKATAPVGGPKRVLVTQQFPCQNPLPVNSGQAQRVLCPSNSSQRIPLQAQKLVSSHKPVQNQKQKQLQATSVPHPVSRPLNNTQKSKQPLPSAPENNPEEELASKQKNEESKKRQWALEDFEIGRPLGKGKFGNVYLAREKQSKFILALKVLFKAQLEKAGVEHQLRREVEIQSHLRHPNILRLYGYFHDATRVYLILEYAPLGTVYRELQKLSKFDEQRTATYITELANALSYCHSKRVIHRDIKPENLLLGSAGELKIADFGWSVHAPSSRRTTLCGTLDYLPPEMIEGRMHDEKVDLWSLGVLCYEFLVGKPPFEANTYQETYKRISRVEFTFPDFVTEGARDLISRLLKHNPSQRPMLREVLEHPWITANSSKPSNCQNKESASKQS

[6] = target: MAP kinase-activated protein kinase 3 (Homo sapiens) (UniProt Q16644); assay: Selectivity interaction (ActivX KiNativ screen (kinase selectivity in THP-1 cell lysates)) EUB0000639a MAPKAPK3; format: subcellular; conditions: lysate
[7] = target: RAF proto-oncogene serine/threonine-protein kinase (Homo sapiens) (UniProt P04049); assay: Selectivity interaction (Kinase panel (Invitrogen)) EUB0000639a RAF1; conditions: at 200 nM
[8] = target: SRSF protein kinase 1 (Homo sapiens, UniProt Q96SB4); assay: Selectivity interaction (ActivX KiNativ screen (kinase selectivity in THP-1 cell lysates)) EUB0000639a SRPK1; format: subcellular; conditions: lysate, at 0.2 µM
[9] = target: T3, Serine/threonine-protein kinase ULK1 (Homo sapiens) (UniProt O75385); assay: Selectivity interaction (ActivX KiNativ screen (kinase selectivity in THP-1 cell lysates)) EUB0000639a ULK1; format: subcellular; conditions: lysate, at 5 µM
T3 sequence (whole entry): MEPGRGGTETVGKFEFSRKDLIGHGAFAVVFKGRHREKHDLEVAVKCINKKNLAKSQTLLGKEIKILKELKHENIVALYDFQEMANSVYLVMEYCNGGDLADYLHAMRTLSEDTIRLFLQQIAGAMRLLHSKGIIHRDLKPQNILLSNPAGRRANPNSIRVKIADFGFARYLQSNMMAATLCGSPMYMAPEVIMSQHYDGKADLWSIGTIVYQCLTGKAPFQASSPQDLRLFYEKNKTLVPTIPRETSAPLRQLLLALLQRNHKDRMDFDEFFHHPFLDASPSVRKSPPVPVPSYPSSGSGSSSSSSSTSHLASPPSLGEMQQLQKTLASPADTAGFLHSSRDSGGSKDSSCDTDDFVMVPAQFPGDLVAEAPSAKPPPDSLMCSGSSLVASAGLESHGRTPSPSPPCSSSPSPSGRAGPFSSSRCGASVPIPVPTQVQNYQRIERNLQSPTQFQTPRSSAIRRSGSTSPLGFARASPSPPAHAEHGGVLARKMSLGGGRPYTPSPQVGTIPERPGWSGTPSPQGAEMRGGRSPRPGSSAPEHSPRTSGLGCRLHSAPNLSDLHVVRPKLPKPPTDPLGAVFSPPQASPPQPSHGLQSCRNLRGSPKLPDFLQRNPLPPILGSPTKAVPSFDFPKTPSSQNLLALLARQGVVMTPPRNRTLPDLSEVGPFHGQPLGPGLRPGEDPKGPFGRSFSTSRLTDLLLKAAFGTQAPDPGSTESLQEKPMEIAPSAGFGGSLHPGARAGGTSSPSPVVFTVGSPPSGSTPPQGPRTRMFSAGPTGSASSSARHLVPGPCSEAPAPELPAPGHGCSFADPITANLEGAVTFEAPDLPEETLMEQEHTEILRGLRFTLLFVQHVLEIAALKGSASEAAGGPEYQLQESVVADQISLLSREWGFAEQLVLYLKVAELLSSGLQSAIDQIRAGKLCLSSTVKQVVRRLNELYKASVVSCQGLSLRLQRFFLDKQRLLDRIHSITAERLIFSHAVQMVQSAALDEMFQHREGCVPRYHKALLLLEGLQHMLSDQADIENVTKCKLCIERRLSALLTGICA

[10] = target: Serine/threonine-protein kinase WNK2 (Homo sapiens) (UniProt Q9Y3S1); assay: Selectivity interaction (KinomeScan (DiscoverX)) EUB0000229b WNK2; conditions: at 10 µM

Chain of MAP kinase-activated protein kinase 3 (Homo sapiens) (Q16644 whole entry, looked up): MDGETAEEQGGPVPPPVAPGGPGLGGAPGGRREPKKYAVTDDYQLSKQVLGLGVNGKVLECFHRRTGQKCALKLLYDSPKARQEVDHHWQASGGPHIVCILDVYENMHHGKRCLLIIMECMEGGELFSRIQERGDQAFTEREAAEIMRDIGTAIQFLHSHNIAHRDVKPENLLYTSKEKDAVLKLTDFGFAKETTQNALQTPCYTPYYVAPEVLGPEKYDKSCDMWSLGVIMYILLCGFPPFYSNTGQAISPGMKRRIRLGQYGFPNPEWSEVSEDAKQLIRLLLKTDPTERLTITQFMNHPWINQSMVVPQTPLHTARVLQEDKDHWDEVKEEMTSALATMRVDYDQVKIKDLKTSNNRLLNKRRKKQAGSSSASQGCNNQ
Chain of SRSF protein kinase 1 (Q96SB4 whole entry): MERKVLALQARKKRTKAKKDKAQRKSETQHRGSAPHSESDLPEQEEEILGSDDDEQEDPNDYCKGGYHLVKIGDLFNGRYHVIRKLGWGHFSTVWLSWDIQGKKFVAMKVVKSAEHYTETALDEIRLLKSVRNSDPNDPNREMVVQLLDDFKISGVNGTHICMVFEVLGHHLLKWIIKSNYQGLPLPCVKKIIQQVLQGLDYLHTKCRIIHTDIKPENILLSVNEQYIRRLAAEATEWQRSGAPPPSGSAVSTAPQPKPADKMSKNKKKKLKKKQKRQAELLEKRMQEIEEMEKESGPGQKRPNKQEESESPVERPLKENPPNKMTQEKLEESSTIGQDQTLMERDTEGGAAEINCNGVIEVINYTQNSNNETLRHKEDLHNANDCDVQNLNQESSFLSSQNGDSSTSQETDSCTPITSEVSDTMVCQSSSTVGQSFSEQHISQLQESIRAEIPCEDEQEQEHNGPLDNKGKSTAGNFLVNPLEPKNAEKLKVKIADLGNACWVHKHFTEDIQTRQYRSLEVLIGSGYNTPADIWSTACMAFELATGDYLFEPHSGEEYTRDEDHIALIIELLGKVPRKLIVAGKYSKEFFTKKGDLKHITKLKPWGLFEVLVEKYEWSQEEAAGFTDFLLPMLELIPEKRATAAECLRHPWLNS
Chain of Casein kinase I isoform delta (P48730 whole entry, looked up, canonical isoform): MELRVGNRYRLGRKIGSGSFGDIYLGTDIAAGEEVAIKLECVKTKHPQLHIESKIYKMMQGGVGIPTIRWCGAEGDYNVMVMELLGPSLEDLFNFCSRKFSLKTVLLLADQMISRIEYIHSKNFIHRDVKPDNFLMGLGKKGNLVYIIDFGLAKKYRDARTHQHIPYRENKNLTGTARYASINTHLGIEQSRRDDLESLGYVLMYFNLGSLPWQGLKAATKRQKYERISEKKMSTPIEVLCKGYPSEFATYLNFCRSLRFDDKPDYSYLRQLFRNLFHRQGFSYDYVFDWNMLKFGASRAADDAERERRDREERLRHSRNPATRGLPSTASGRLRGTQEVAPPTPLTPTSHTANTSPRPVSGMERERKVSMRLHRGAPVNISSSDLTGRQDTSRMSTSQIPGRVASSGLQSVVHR
Chain of Calcium/calmodulin-dependent protein kinase type 1D (Homo sapiens) (Q8IU85 whole entry, looked up): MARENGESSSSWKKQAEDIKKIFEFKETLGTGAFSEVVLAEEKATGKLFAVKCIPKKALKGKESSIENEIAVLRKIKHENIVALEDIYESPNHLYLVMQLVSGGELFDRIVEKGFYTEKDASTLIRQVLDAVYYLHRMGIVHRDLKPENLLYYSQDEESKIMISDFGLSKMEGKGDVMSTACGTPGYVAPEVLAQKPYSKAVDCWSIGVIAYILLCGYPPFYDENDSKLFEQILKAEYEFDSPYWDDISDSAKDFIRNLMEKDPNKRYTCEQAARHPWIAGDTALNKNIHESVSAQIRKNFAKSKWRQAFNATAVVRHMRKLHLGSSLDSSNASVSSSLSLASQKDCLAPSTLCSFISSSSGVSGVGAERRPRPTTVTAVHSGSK
Chain of Serine/threonine-protein kinase N2 (Q16513 whole entry, looked up): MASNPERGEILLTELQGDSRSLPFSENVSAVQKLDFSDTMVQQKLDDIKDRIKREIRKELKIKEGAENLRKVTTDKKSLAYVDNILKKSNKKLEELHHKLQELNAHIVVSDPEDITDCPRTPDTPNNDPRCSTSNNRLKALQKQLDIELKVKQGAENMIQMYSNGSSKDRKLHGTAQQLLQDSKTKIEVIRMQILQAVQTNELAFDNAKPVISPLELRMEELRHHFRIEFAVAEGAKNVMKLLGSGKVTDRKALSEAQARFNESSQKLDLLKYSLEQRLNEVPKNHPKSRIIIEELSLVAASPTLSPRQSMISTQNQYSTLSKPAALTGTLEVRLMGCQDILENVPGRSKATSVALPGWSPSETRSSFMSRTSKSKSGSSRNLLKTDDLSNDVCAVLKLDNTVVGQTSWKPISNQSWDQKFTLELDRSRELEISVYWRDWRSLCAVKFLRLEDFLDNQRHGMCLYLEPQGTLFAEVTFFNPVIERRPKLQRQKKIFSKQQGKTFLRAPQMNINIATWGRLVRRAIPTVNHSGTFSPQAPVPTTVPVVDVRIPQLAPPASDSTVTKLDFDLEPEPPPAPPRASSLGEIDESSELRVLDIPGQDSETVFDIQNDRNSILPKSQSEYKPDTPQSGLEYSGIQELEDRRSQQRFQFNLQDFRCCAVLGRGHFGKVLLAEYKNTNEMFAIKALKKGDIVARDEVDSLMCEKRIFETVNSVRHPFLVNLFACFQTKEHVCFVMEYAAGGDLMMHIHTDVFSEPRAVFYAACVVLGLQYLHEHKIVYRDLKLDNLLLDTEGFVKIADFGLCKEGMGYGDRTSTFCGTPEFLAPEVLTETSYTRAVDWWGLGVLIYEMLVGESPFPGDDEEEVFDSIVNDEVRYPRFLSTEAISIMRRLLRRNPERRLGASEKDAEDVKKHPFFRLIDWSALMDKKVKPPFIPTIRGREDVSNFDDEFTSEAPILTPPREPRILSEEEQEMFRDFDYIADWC
Chain of RAF proto-oncogene serine/threonine-protein kinase (Homo sapiens) (P04049 whole entry): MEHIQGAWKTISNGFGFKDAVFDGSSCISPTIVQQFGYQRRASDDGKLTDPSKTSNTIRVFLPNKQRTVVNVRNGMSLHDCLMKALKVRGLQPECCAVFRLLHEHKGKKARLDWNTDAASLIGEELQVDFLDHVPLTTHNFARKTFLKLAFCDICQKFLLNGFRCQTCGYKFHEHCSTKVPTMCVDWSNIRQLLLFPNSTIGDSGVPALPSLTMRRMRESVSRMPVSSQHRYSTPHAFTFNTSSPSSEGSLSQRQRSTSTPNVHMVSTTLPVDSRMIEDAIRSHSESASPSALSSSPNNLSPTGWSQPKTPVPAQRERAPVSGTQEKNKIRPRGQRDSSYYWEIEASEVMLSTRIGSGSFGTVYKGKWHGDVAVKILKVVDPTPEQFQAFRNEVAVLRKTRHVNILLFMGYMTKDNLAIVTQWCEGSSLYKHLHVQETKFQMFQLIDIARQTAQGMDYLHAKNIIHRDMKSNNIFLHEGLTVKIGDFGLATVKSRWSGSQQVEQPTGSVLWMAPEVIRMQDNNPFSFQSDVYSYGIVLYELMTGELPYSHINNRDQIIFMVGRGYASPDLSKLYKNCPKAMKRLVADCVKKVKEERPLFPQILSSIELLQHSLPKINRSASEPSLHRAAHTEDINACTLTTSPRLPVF

SMILES: CCN(CC)CCCCNc1ncc2cc(-c3cc(OC)cc(OC)c3)c(NC(=O)NC(C)(C)C)nc2n1
- % of control [1]: 100%
- % of control [2]: 100%

SMILES: O[C@H]1CC[C@H](Nc2ncc3nc(Nc4c(F)cc(F)cc4F)n([C@H]4CCOC4)c3n2)CC1
- % of control [3]: 93%

SMILES: CNC(=O)Nc1ccc(-c2nc(N3CC4CCC(C3)O4)c3cnn(C4CCC5(CC4)OCCO5)c3n2)cc1
- % of control [4]: 92%

SMILES: CC[C@@H]1[C@H](F)C(=O)N[C@@H]1COc1nccc2cc(C(N)=O)c(OC)cc12 [ZIMLOVISERTIB]
- % of inhibition [5]: 57.8%
- % of inhibition ([6]; at 0.01 µM): 3.3%
- % of inhibition ([6]; at 0.04 µM): 10.6%
- % of inhibition ([6]; at 0.2 µM): 6.9%
- % of inhibition ([6]; at 1 µM): -0.7%
- % of inhibition ([6]; at 5 µM): 4.9%
- % of inhibition [7]: 15.9%
- % of inhibition [8]: 0.5%
- % of inhibition [9]: -74.1%

SMILES: COc1cc(N(C)c2ccnc3ccc(C(F)(F)F)cc23)cc(OC)c1OC
- % binding [10]: 100%
